In patent publication US11639364B2, “Potent sialyltransferase inhibitors” (STICHTING RADBOUD UNIVERSITEIT, priority 2018, dated 2023) one finds IC50 data, which are given here for two compounds.

Molecules are shown by their SMILES. Like-named read-outs stand apart in the source and are kept apart here.

In experiment [1] the test system is HeLa cells. The experiment can be described thus: Inhibition of cell surface sialylation, lectin staining and flow cytometry, HeLa cells. The class given is cell-based, human. As to conditions: three days. Here is the method:
(§1) Mouse B16-F10 melanoma cells (ATCC CRL-6475) were cultured in Minimum Essential Medium (MEM) (Gibco, Invitrogen, Carlsbad, Calif.) containing 5% fetal bovine serum (FBS) (Greiner Bio-one, Frickenhausen, Germany), 1% MEM non-essential amino acids (Gibco), 0.15% sodium bicarbonate (Gibco), 1 mM sodium pyruvate (Gibco), 1.5% MEM vitamins (Gibco), 1% antibiotic-antimycotic solution (50 U/ml penicillin, 50 μg/ml streptomycin and 125 ng/ml amphotericin B) (Gibco). The murine 9464D neuroblastoma cell line was cultured in Dulbecco's Modified Eagle's Medium (DMEM, Glutamax, Gibco) with 10% FBS, 1% non-essential amino acids, 50 μM 2-mercaptoethanol (Sigma-Aldrich) and 1% antibiotic-antimycotic solution (Kroesen et al., 2014, DOI: 10.1002/ijc.28463, Stauffer et al., 2012, DOI: 10.3109/07357907.2012.664670). The murine EL4 T lymphocyte cell line (ATCC TIB-39) was cultured in Iscove's Modified Dulbecco's Medium (IMDM, Gibco) supplemented with 5% FBS and 1% antibiotic-antimycotic solution. Human HEK293 (ATCC CRL-1573) kidney cells and human HeLa (ATCC CCL-2) cervical cancer cells were cultured in DMEM containing 10% FBS, 2 mM glutamine (Lonza, Walkersville, Md.) and 1% antibiotic-antimycotic solution. Human monocytic THP-1 cells (TIB-202, ATCC) were cultured in RRMI-1640 medium (Gibco) supplemented with 10% FBS, 2 mM glutamine and 1% antibiotic-antimycotic solution. All cell lines were cultured in a humidified 5% CO2 incubator at 37° C.
(§2) To assess the effect of the synthesized compounds on cell surface sialylation, different murine and human cell lines were cultured for three days in the presence of 0-204.8 μM amide and carbamate fluorine sialic acids. Cells treated with an equal final percentage of DMSO were used as control and all cells were subjected to lectin staining and flow cytometry as described below. To investigate the longevity of the effect of the fluorine sialic acids on cell surface sialylation, B16-F10 cells treated with 25.6 μM or 51.2 μM were thoroughly washed with medium to remove fluorine sialic acids from the culture and reseeded. During a period of six days, cells were harvested every day and sialylation was assessed by flow cytometry.
(§3) For the lectin staining, all cells were harvested and washed with 1× carbo-free blocking solution (Vector Laboratories, Inc., Burlingame, Calif., USA) and stained for 45 minutes at 4° C. in 1× carbo-free blocking solution containing 1 mM CaCl2), 1 mM MgCl2 and biotinylated MALII (5 μg/ml), SNA-1 (1 μg/ml) or PNA (5 μg/ml) all obtained from Vector Laboratories Inc. MALII recognizes α2,3-linked sialic acids, SNA-1 recognizes α2,6-linked sialic acids and PNA binds to terminal 3-galactose. In addition, B16-F10 cells were stained with 2 μg/ml biotinylated AAL (α-linked Fucose), LCA (α-linked Mannose), PHA-L (complex glycans), GSL-I (α-linked Galactose and N-Acetylgalactosamine), WGA (chitobiose), SJA (β-linked Galactose and N-Acetylgalactosamine) and PSA (Glucose and Mannose) purchased from Vector Laboratories Inc. Next, the cells were washed thrice in PBA (1×PBS, 1% BSA, and 0.02% sodium azide) and stained for 10 minutes at 4° C. with 2 μg/ml streptavidin-phycoerythrin (PE) (BD Pharmingen, Franklin Lakes, N.J., USA). The cells were washed thrice again with PBA and fluorescence was assessed using a CyAn ADP flow cytometer (BD Biosciences, San Jose, Calif.) followed by analysis with FlowJo software (Tree Star Inc., Ashland, Oreg.). Untreated cells stained with streptavidin-PE only served as background fluorescence control. The percentages lectin binding was calculated by normalizing the mean fluorescence intensity values from the treated cells with the DMSO controls.
(§4) IC50 values and statistics were calculated using Prism 5.03 (GraphPad Software, Inc., La Jolla, Calif.). Statistical significance between the different groups was calculated using one-way ANOVA followed by Bonferroni post-hoc testing and P-values<0.05 were considered significant (p<0.05 *, p<0.01 **, p<0.001 ***). […]
In general terms: A flow cytometer gives signals particle by particle.

Experiment [2] deals with 9464D cells. The experiment in a line: Inhibition of cell surface sialylation, lectin staining and flow cytometry, 9464D cells. In kind it is cell-based, murine. Conditions: three days. Here is the method:
as §1, §2, §3, §4

The subject of experiment [3] is B16-F10 cells. The experiment in a line: Inhibition of cell surface sialylation, lectin staining and flow cytometry, B16-F10 cells. In kind it is cell-based, Mouse. As to conditions: three days. Here is the method:
as §1, §2, §3, §4

Experiment [4] deals with EL4 cells. The experiment can be described thus: Inhibition of cell surface sialylation, lectin staining and flow cytometry, EL4 cells. Conditions: three days. The class given is cell-based, murine. The protocol:
as §1, §2, §3, §4

The subject of experiment [5] is B16-F10 cells. The experiment can be described thus: Inhibition of cell surface sialylation by urea, thiocarbamate and sulphonamide analogues (Example 5). In kind it is cell-based, Mouse. As to conditions: three days, 0.1-204.8 μM. Here is the method:
as §1, §3
IC50 values and statistics were calculated using Prism 5.03 (GraphPad Software, Inc., La Jolla, Calif.). Statistical significance between the different groups was calculated using one-way ANOVA followed by Bonferroni post-hoc testing and P-values<0.05 were considered significant (p<0.05 *, p<0.01 **, p<0.001 ***).
Analogous to example 3, the inhibitory potency of thiocarbamate 28, urea 29, and sulphonamides 30 and 31 on the sialic acid biosynthesis was assayed. To this end, B16-F10 cells were fed sialic acid precursors for three day at various concentrations (0.1-204.8 μM). The decrease in cell surface sialylation was measured using biotinylated lectins that are specific for binding α2,3-linked (MALII) or α2,6-linked (SNA-1) sialic acid residues, subsequently visualized using streptavidin-phycoerythrin. Conversely, binding of the underlying galactose residue uncovered by desialylation was measured using a galactose specific lectin (Peanut, Agglutinin Lectin, PNA). No inhibition was observed without a P-3Fax-Neu derivative present (DMSO vehicle control). […]

The subject of experiment [6] is HEK293 cells. The experiment in a line: Inhibition of cell surface sialylation, lectin staining and flow cytometry, HEK293 cells. In kind it is cell-based, Human. As to conditions: three days. Here is the method: as §1, §2, §3, §4
Experiment [7] relates to THP-1 cells. The experiment in a line: Inhibition of cell surface sialylation, lectin staining and flow cytometry, THP-1 cells. The class given is cell-based, Human. As to conditions: three days. The protocol:
as §1, §2, §3, §4

Where [8] appears, read: MALII lectin binding, read-out: α2,3-Sia IC50.
The mark [9] stands for this setting: SNA-I lectin binding, read-out: α2,6-Sia IC50.
[10] abbreviates: Homo sapiens, 72 h, MALII lectin binding, read-out: α2,3-Sia IC50.
The mark [11] stands for this setting: Homo sapiens, 72 h, SNA-I lectin binding, read-out: α2,6-Sia IC50.
Where [12] appears, read: Mus musculus, 72 h, MALII lectin binding, read-out: α2,3-Sia IC50.
The mark [13] stands for this setting: Mus musculus, 72 h, SNA-I lectin binding, read-out: α2,6-Sia IC50.

Usually IC50 stands for the midpoint of a concentration-inhibition curve.

On to `COC(=O)C1(OC(C)=O)O[C@@H]([C@H](OC(C)=O)[C@@H](COC(C)=O)OC(C)=O)[C@H](NC(C)=O)[C@@H](OC(C)=O)[C@H]1F` (stereo partly drawn) [SiaFAc, Methyl 5-(acetamido)-2,4,7,8,9-penta-O-acetyl-3,5-dideoxy-3-fluoro-D-glycero-β-galacto-non-2-ulopyranosonate, reference compound], for which the half-inhibitory concentration (IC50) was 53 ± 3.61 µM in experiment [1] (setting [8]); 34.5 ± 2.18 µM in experiment [1] (setting [9]); more than 102 µM in experiment [2] (setting [8]); more than 102 µM in experiment [2] (setting [9]); 26.8 ± 5.72 µM in experiment [3] (setting [8]); 32.8 ± 3.08 µM in experiment [3] (setting [9]). Further, the concentration for half-maximal inhibition (IC50) is more than 102 µM in experiment [4] (setting [8]); more than 102 µM in experiment [4] (setting [9]); 20.9 µM in experiment [5] (Example 5, read-out: α2,6-Sia IC50 (SNA)); 45.2 ± 8.3 µM in experiment [6] (setting [8]); 36.7 ± 3.59 µM in experiment [6] (setting [9]); 8.5 ± 1.54 µM in experiment [7] (setting [8]). For the same compound, in experiment [7] (setting [9]), the IC50 was 10.9 ± 2.47 µM.
With `CCOC(=O)N[C@@H]1C(OC(C)=O)C(F)C(OC(C)=O)(C(=O)OC)OC1[C@H](OC(C)=O)[C@@H](COC(C)=O)OC(C)=O` (stereo partly drawn) [SiaFEt, Methyl 5-(ethylcarbamado)-2,4,7,8,9-penta-O-acetyl-3,5-dideoxy-3-fluoro-D-glycero-β-galacto-non-2-ulopyranosonate], the IC50 in experiment [1] (setting [10]) turned out to be 2.02 ± 1.52 µM; in experiment [1] (setting [11]), 1.67 ± 1.31 µM; in experiment [2] (setting [12]), 8.91 ± 2.38 µM; in experiment [2] (setting [13]) it was 28.1 ± 5.51 µM; in experiment [3] (setting [12]), 1.78 ± 0.16 µM; in experiment [3] (setting [13]), 3.87 ± 1.14 µM. Also, the IC50 is 42 ± 11 µM in experiment [4] (setting [12]); 50.6 ± 8.84 µM in experiment [4] (setting [13]); 0.929 µM in experiment [5] (Mus musculus, 72 h, Example 5, read-out: α2,3-Sia IC50 (MAL)); 3.92 µM in experiment [5] (Mus musculus, 72 h, Example 5, read-out: α2,6-Sia IC50 (SNA)); 2.02 ± 2.72 µM in experiment [6] (setting [10]); 1.57 ± 4.23 µM in experiment [6] (setting [11]). The IC50 in experiment [7] (setting [10]) came to 0.45 ± 0.74 µM; in experiment [7] (setting [11]), 0.37 µM.
